Experimental data taken from patent US20250325553A1, “METHODS OF TREATING CANCER” (FOGHORN THERAPEUTICS INC., priority 2022, published 2025).
Where two headings read alike, the source gives them in different places.

Legend:
[1] = Population PK model of orally administered Compound A patient data; type: in vivo, human
Protocol: A population PK model based on orally administered Compound A dosing data in a total of 10 patients with metastatic uveal melanoma (UM) and advanced hematologic malignancies (e.g., acute myeloid leukemia (AML)) was performed.
Nonlinear mixed-effects models were fitted to concentration vs. time data of FHD-286. Various compartmental models with linear elimination (1-, 2- and 3-compartment), absorption models, structures of omega on clearances, volumes and absorption parameters (diagonal and block) were developed to assess the PK of Compound A.
Overall, a two-compartment model with linear elimination, a zero-order oral absorption, and a lag time of absorption adequately characterized the concentration-time profiles of Compound A.
Exploratory analysis of covariate effects was performed with appropriate plots presenting relationships between the ETAs (e.g., values reflecting the difference between and individual's parameter value and that of the population) of PK parameters to identify any remaining covariate trends. […] Therefore a “Multiple Dose Effect” on CL was included in the model to account for this change over time.
No other covariates were included as part of the model.

[2] = Phase 1 dose escalation clinical trial, preliminary pharmacokinetics; type: in vivo; conditions: preliminary PK analysis
Protocol: (§1) A Phase 1 dose escalation clinical trial of Compound A is conducted. The trial is primarily intended to determine the maximum tolerated dose (MTD) and/or recommended phase 2 dose of the compound when administered orally to subjects with metastatic uveal melanoma.
(§2) In this ongoing study, Compound A has been administered at dose levels of 2.5 mg once a day (QD), 5 mg QD, 7.5 mg QD, and 10 mg QD to 17 subjects with metastatic uveal melanoma.

[3] = tested on: metastatic uveal melanoma; test: Phase 1 dose escalation clinical trial, tumor response; type: in vivo, human; conditions: 2.5-10 mg QD oral, 17 subjects with metastatic uveal melanoma
Protocol: as §1, §2

[4] = tested on: subjects with metastatic uveal melanoma; test: Phase 1 dose escalation clinical trial, dose limiting toxicity; type: in vivo; conditions: one subject treated at the 7.5 mg dose; improved with a dose hold
Protocol: as §1, §2

With COC[C@H](NC(=O)c1ccn(S(C)(=O)=O)c1)C(=O)Nc1nc(-c2cccc(N3C[C@@H](C)O[C@@H](C)C3)n2)cs1 [Compound A, N-(1-((4-(6-(2,6-dimethylmorpholino)pyridin-2-yl)thiazol-2-yl)amino)-3-methoxy-1-oxopropan-2-yl)-1-(methylsulfonyl)-1H-pyrrole-3-carboxamide] the “clearance (CL) over time” value ([1]; after multiple doses) was “reduction in clearance”, the “Vc, Estimate” value ([1]; final PK model parameter) was 54.6 L and the “Tlag, Estimate” value ([1]; final PK model parameter, lag time of absorption) was 0.452 h. For the same compound, the “Dur, Estimate” value ([1]; final PK model parameter, zero-order oral absorption, two-compartment model, 10 patients (UM, AML)) was 1.77 h, the clearance ([1]; human, in vivo, oral, final PK model parameter, linear elimination, read-out: CL, Estimate (converted)) was 67.8 mL/min and the clearance ([1]; human, in vivo, oral, final PK model parameter, read-out: CLp, Estimate (converted)) was 510 mL/min. For the same compound, the Vd ([1]; human, in vivo, oral, final PK model parameter, read-out: Vd, Estimate) was 165 L, the half-life ([2]; oral 2.5, 5, 7.5, 10 mg QD, subjects with metastatic uveal melanoma) was “long half-life” and the “plasma concentrations of the compound” value ([2]; oral 2.5-10 mg QD dose levels) was “increase with increasing dose”. For the same compound, the tumor response [3] was “Stable disease and reductions in tumor burden” and the dose limiting toxicity [4] was “Grade 3 keratitis”.
